Measurements as given in patent US20260207769A1, “ANTIBODY DRUG CONJUGATES” (YALE UNIVERSITY, priority 2022, published 2026).

What was measured:
[1] = test system: SKOV3 ovarian cancer cells; experiment: Cell viability of SKOV3 cells at 7 days of treatment; assay type: cell-based
Description: The effect of SN38 and 3E10-SN38 conjugates were investigated in SKOV3 ovarian cancer cells. SKOV3 cells were treated with SN38, various 3E10 antibodies and 3E10-SN38 conjugates.
EC50 values are also included.
The EC50 values were calculated and are set forth below in Table 4.

WT DLD-1 cells = experiment: Clonogenic assay in WT DLD-1 cells; assay type: cell-based, human; details: WT DLD-1, after 7 days
Description: Clonogenic or colony formation assays are in vitro assays that can measure the survival or growth of cells on a single-cell level based on the ability of a single cell to grow into a colony. WT or BRCA2^−/− DLD-1 cells were plated with different concentrations of SN38, 3E10 antibody, or 3E10-SN38 conjugate added into the clonogenic assay media. After 7 days for WT cells or 10 days for BRCA2^−/− cells, colony numbers were counted to quantify DLD-1 cell survival. […] Consistent with earlier results, DLD-1 cell survival was concentration-dependent.

[2] = test system: PEO-4 (WT) ovarian adenocarcinoma cells; experiment: Cell viability of PEO-4 cells; assay type: cell-based; details: PEO-4 (WT) cells, at 7 days
From the text: (§1) Cancer cell lines were acquired from ATCC and cultured according to well known methods in the art. Treatment with cytotoxic agents, antibodies, or ADCs refers to the addition of the cytotoxic agent, antibody or ADC (i.e., DM1 or cD31N-DM1, etc.) to the culture media for a set duration.
The effects of longer-term treatment with SN38 and cD31N-SN38 on PEO-4 (WT) and PEO-1 (BRCA2^−/−) ovarian cancer cells were investigated.

BRCA2^−/− DLD-1 cells = experiment: Single 24 hour treatment, long-term viability of BRCA2-/- DLD-1 cells; assay type: cell-based, human; details: BRCA2-/- DLD-1, 24 hour treatment, days 3, 5 and 7
Description: The effects of treatment with the SN38 or 3E10-SN38 conjugates on the colorectal cancer DLD-1 cell line were investigated. WT and BRCA2^−/− deficient DLD-1 cells were tested. FIG. 13 provides the study protocol and timeline. Each well of a 96-well plate was loaded with 1000 DLD-1 cells. 24 hours post-plating, cells were treated with different concentrations of cWT-SN38 conjugate, cD31N-SN38 conjugate, or SN38 for 24 hours. After treatment, the media was replaced with fresh treatment-free media and was not changed again. Cell viability and half maximal effective concentration (EC50) were tracked every 48 hours post-treatment on days 3, 5, and 7. Half maximal effective concentration (EC50) is a measure of the concentration of a drug, antibody or toxicant which induces a response halfway between the baseline and maximum after a specified exposure time.

[3] = test system: DNA damage response proteins, such as 7H2AX, p-ATM, and p-ATR; experiment: Western blot of DNA damage response proteins in DLD-1 cells after 96 hours; assay type: cell-based, human; details: 100 nM
Description: To measure the expression of DNA damage response proteins at a later time point, DLD-1 cells were treated with 100 nM of SN38, cD31N antibody, or cD31N-SN38 conjugate and collected for Western blot after 96 hours (4 days). Results at the 96 hour time point were consistent with the 24 and 48 hour results.

[4] = test system: WT DLD-1 colorectal adenocarcinoma cells; experiment: Cell viability assay in WT DLD-1 cells; assay type: cell-based, human
From the text: as §1
BRCA2 deficient (BRCA2′) cells are more sensitive to DM1 because BRCA2 participates in DNA double-stranded break (DSB) repair.
The viability assay protocol is set forth in Example 3.

[5] = test system: HCT116 colorectal cancer cells; experiment: Cell viability of WT HCT116 cells; assay type: cell-based
Description: WT and mutant IDH1 (IDH1^mut) HCT116 cells were treated with different concentrations of SN38, cD31N antibody, or cD31N-SN38 conjugate. The effects of 3E10-cD31N-SN38 conjugate treatment on HCT116 WT and HCT116IDH1^mut were investigated.

[6] = test system: DNA damage response proteins; experiment: Western blot of DNA damage response proteins in SKOV3 cells; assay type: cell-based; details: 100 nM, 24, 48 and 72 hours
Description: SKOV3 ovarian cancer cells were treated with 100 nM of SN38, cD31N antibody, or cD31N-SN38 as indicated and collected at 24, 48, and 72 hours of treatment for Western blot analysis to measure specific protein markers of DNA damage response as previously described. […] In particular, 7H2AX levels increased over time.

[7] = test system: DNA damage response proteins; experiment: Western blot of DNA damage response proteins in PEO-1 cells; assay type: cell-based; details: 100 nM, 24 and 48 hours
Description: PEO-4 (WT) and PEO-1 (BRCA2^−/−) ovarian cancer cells were treated with 100 nM of SN38, cD31N or cD31N-SN38 and collected at 24 and 48 hours of treatment for Western blot analysis to measure specific protein markers of DNA damage response as previously described.

[8] = test system: DNA damage response proteins such as γH2AX, p-ATM, and p-ATR; experiment: Western blot of DNA damage response proteins in WT DLD-1 cells; assay type: cell-based, human
Description: SN38 causes DNA damage via inhibition of topoisomerase I. Therefore, DNA damage was measured in both wild-type (WT) and BRCA2 deficient (BRCA2′) DLD-1 cells by induction of γH2AX after treatment with one of the following: no treatment (NT), SN38 alone (SN38), wild-type 3E10 antibody alone (cWT), 3E10-cD31N antibody alone, cWT-SN38 conjugate, or cD31N-SN38 conjugate. After treatment with 100 nM of the antibody or conjugate for 48 hours, the DLD-1 cells were collected for Western blot analysis to measure 7H2AX protein levels. […] These findings were consistent in both WT and BRCA2^−/− DLD-1 cells, but γH2AX protein levels were elevated across all groups in BRCA2^−/− DLD-1 cells.
DNA damage caused by SN38 or 3E10-SN38 conjugates in WT and BRCA2^−/− DLD-1 cells was assessed by measuring the levels of proteins involved in DNA damage response, p-ATM, p-ATR, pBRCA1, Topoisomerase 1 (TOPO-1), pChk2, pChk1, γH2AX and H2AX. DLD-1 cells were treated with 100 nM of SN38, cWT antibody, cD31N antibody, cWT-SN38 conjugate, or cD31N-SN38 conjugate and collected for Western blot after 24 (FIG. 21A) and 48 hours (FIG. 21B). No treatment (NT) was used as control.

CCc1c2c(nc3ccc(O)cc13)-c1cc3c(c(=O)n1C2)COC(=O)[C@]3(O)CC [SN38, SN-38]
cell viability at the highest concentrations [1]: about 0%
EC50 ([1]; 7 days of treatment): 2.8 nM
cell survival (colony numbers) (WT DLD-1 cells): reduced cell survival
cell viability [2]: reduced cell viability in a concentration-dependent manner resulting in low EC50 values
EC50 values compared between treatments (BRCA2^−/− DLD-1 cells): lower EC50 value than both 3E10-SN38 conjugates
TOPO-1 levels [3]: TOPO-1 levels were also reduced
expression of DNA damage response proteins [3]: increased expression of DNA damage response proteins
EC50 [4]: 6.26 nM
cell viability ([5]; 5 days of treatment): substantial loss in cell viability
cell viability ([5]; 7 days of treatment): substantial loss in cell viability
protein expression of DNA damage response proteins [6]: protein expression of DNA damage response proteins was increased
protein expression of DNA damage response proteins [7]: protein expression of DNA damage response proteins was increased
protein levels of DNA damage response proteins ([8]; WT DLD-1, 100 nM, 24 and 48 hour time points): increased the protein levels of DNA damage response proteins such as γH2AX, p-ATM, and p-ATR
TOPO-1 levels ([8]; WT DLD-1, 100 nM, 24 and 48 hours): reduced TOPO-1 levels
γH2AX induction (Western blot) ([8]; WT DLD-1, 100 nM, 24 hours (Example 10)): 7H2AX was induced
γH2AX detection (Western blot) ([8]; WT DLD-1, 100 nM, 48 hours (Example 10)): 7H2AX was detected
γH2AX protein levels (Western blot) ([8]; WT DLD-1 cells, 100 nM, 48 hours (Example 5)): induced the highest levels of γH2AX expression
